The target in one data set is T1, B7-1/CD28 (Homo sapiens, UniProt P33681).
T1 sequence (P33681 35-242 limits assumed): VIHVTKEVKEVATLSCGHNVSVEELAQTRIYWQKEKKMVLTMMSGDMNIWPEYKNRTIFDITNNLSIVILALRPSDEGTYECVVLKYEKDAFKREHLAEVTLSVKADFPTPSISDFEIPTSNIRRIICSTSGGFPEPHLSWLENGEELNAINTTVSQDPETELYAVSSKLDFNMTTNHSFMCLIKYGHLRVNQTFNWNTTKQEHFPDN
As to the kind of experiment: CD28/B7-1 ELISA (B7-1/CD28 binding inhibition). Particulars: CD28-Fc coated wells; B7-1-Fc-biotin/streptavidin-alkaline phosphatase detection complex; 1% DMSO. The method, then: Evaluation of B7-1/CD28 Binding Inhibition for Test Compounds
Wells are coated with 300 ng CD28-Fc in carbonate buffer (pH 9.4) overnight at 4° C., blocked with 1% bovine serum albumin in tris-buffered saline (TBS) for 1 h at 22° C. and washed 3 times in TBS prior to assay. The detection complex is formed as follows: B7-1-Fc-biotin, prepared using NHS-LC-biotin (Pierce #21335) according to the manufacturers instructions (4.1 moles biotinimole Fc), is added at 0.8 ug/ml to streptavidin-alkaline phosphatase (Caltag Sa1008) at 1:1000 in TBS. A solution of test compound in dimethylsulfoxide (1% final) are added to this complex and incubated 30 min at 22° C. Detection complex (+/−inhibitors) is then added to the CD28 coated wells for 25 min at 22° C., washed 5 times with TBS, developed with the colorimetric substrate pNPP (Pierce #34045) in diethanolamine/MgCl2 buffer (pH 9.5) and read at 405 nm. The inhibition constant (IC50) is calculated by subtracting background binding and comparing to uninhibited (DMSO alone) controls. The inhibition constant represents the concentration of test compound required to achieve 50% inhibition.

Drawing on patent US6734190B2, “Dihydrodipyrazolopyridinylbenzamide and -sulfonamide inhibitors of B7-1” (Wyeth, priority 2002, dated 2004), this text covers IC50 and melting point for 10 compounds.

`COC(=O)c1cccc(NC(=O)c2ccc(-n3[nH]c4c(c(-c5cccc(C(F)(F)F)c5)nc5c4cnn5C)c3=O)cc2)c1` [Example 42] showed a melting point of 220 to 222 °C. The IC50 on B7-1/CD28 was 94 nM.

Compound `Cn1ncc2c3[nH]n(-c4ccc(C(=O)NCc5ccccc5)cc4)c(=O)c3c(-c3cccc(C(F)(F)F)c3)nc21` [Example 32] had a melting point of 189 to 192 °C. On B7-1/CD28, the IC50 came out at 79 nM.

Take `COC(=O)C1CCN(C(=O)c2ccc(-n3[nH]c4c(c(-c5cccc(C(F)(F)F)c5)nc5c4cnn5C)c3=O)cc2)CC1` [Example 26]: the melting point was 187 °C (dec.). Besides, the IC50 at B7-1/CD28 amounted to 90 nM.

Take `COCc1cccc(NC(=O)c2ccc(-n3[nH]c4c(c(-c5cccc(C(F)(F)F)c5)nc5c4cnn5C)c3=O)cc2)c1` [Example 29]: the melting point is 210 °C (dec.). Moreover, on B7-1/CD28, the IC50 was found to be 110 nM.

`Cn1ncc2c3[nH]n(-c4ccc(C(=O)N5CCOCC5)cc4)c(=O)c3c(-c3cccc(C(F)(F)F)c3)nc21` [Example 33, 6-methyl-2-[4-(4-morpholinylcarbonyl)phenyl]-4-[3-(trifluoromethyl)phenyl]-1,6-dihydrodipyrazolo[3,4-b:3,4-d]pyridin-3(2H)-one] returned a melting point of 287 to 290 °C. Moreover, at B7-1/CD28, the half-inhibitory concentration (IC50) came out at 13 nM.

`COc1cc(CNC(=O)c2cccc(-n3[nH]c4c(c(-c5cccc(C(F)(F)F)c5)nc5c4cnn5C)c3=O)c2)ccc1O` [Example 17] returned a melting point of 172 to 176 °C. Moreover, the IC50 at B7-1/CD28 was 55 nM.

Turning to `Cn1ncc2c3[nH]n(-c4ccc(C(=O)Nc5ccc(CCO)cc5)cc4)c(=O)c3c(-c3cccc(C(F)(F)F)c3)nc21` [Example 34], the melting point fell in the range of 186 to 189 °C. In addition, at B7-1/CD28, the IC50 came to 23 nM.

In the case of `Cn1ncc2c3[nH]n(-c4ccc(C(=O)Nc5cccc6c5CCCC6O)cc4)c(=O)c3c(-c3cccc(C(F)(F)F)c3)nc21` (centres unmarked) [Example 43], the melting point is 298 °C (dec.). Also, the IC50 on B7-1/CD28 was 300 nM.

`Cn1ncc2c3[nH]n(-c4ccc(C(=O)Nc5ccc(O)c(O)c5)cc4)c(=O)c3c(-c3cccc(C(F)(F)F)c3)nc21` [Example 98] displayed a melting point of 206 to 209 °C. The compound also yielded an IC50 on B7-1/CD28 of 36 nM.

Turning to `CN1CCN(C(=O)c2ccc(-n3[nH]c4c(c(-c5cccc(C(F)(F)F)c5)nc5c4cnn5C)c3=O)cc2)CC1` [Example 27], the melting point lay in the range of 191 to 194 °C. Besides, the 50% inhibitory concentration (IC50) on B7-1/CD28 worked out at 500 nM.

For orientation: IC50 means the point on the concentration scale where inhibition reaches its midpoint. Lower therefore signals inhibition by little substance. What is called melting point is the temperature of the solid-liquid transition.
